Laboratory results reported in ChEMBL document CHEMBL1201862, “PubChem BioAssay data set” (2004).
Active and inactive are the calls of the source.

How the values were obtained:
H4 = assay: Luminescence Cell-Based Dose Response HTS to Identify Activators of 5'UTR Stem-Loop Driven Prion Protein mRNA Translation in H4 Neuroglioblastoma Cells. [Related pubchem assays: 1829 (Project Summary), 1814 (Primary HTS)]; format: functional; conditions: Homo sapiens
[1] = Luminescence Cell-Based Dose Response HTS to Identify Activators of Luciferase Translation or Activity in H4 […] Cells. [Related pubchem assays: 1829 (Project Summary), 1814 (Primary HTS)]; format: functional
Cytochrome P450 2C19 = Cytochrome P450 2C19 (Homo sapiens, UniProt P33261); assay: Cytochrome panel assay with activity outcomes. Panel member name: p450-cyp2c19 Compounds with AC50 equal or less than 10 uM are considered active; format: functional; conditions: read-out: AC50
Cytochrome P450 3A4 = Cytochrome P450 3A4 (Homo sapiens, UniProt P08684);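 further: CYP3A4 tested as one member of a cytochrome P450 panel screen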
[2] = biological target: T1, Heat shock factor protein 1 (Mus musculus, UniProt P38532); assay: HSF1 potentiators in luciferase reporter cells, confirmation, cell-based, NIH3T3, luminescence, dose retest (AID 435004); format: functional;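 further: stress induced by proteasome inhibitor MG132 added 30 min after compound; luciferase reporter driven by HSF1 response element in NIH3T3 cells; actives raise luminescence as potentiators of the MG132 stress response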
T1 sequence (P38532 whole entry): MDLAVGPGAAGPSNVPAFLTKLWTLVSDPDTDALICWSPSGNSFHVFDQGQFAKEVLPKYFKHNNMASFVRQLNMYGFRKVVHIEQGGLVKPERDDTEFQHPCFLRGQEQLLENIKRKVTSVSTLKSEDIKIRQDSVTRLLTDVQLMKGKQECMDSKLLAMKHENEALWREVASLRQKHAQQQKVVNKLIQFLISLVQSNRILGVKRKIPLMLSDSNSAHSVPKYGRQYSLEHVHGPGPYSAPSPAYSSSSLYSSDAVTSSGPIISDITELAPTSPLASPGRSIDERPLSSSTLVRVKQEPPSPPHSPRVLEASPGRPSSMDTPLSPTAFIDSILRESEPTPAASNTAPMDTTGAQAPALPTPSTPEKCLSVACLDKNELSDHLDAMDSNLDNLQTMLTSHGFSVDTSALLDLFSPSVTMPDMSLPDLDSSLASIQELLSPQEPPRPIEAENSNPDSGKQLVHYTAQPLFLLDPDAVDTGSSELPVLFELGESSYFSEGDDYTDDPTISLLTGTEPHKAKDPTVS

[3] = biological target: T2, Corticotropin-releasing factor receptor 2/Corticotropin-releasing factor-binding protein (Homo sapiens, UniProt P24387+Q13324); assay: activators of CRF receptor 2 with binding protein – uHTS hits, confirmation (AID 602473); format: functional; conditions: read-out: EC50_Mean
T2 sequence (Q13324 whole entry): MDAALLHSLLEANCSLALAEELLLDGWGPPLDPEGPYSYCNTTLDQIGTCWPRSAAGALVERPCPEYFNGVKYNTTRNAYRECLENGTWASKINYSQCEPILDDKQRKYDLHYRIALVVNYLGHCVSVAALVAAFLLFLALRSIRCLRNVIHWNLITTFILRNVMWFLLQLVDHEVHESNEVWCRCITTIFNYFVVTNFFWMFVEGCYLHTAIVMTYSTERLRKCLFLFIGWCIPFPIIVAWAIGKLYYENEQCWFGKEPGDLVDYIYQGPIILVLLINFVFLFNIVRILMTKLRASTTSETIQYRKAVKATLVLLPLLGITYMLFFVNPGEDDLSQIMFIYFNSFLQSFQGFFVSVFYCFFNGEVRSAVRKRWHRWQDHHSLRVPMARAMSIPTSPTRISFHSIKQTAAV
T2 sequence (P24387 whole entry): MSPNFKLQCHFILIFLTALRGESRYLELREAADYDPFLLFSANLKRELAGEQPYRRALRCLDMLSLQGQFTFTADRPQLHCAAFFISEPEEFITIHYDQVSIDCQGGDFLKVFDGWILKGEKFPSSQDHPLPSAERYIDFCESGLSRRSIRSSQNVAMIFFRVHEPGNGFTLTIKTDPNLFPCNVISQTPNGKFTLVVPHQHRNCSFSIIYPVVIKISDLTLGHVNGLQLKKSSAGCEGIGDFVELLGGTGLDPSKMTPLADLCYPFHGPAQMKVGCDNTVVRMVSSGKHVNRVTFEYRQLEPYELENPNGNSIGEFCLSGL

[4] = tested on: Streptococcus sp. 'group A'; assay: growth inhibition of control SK(-) GAS strain, dose response, counter-screen for streptokinase expression inhibitor project, luminescence, kanamycin, BacTiterGlo, confirmation (AID 1900); format: functional, organism-based
Streptococcus = assay: Group A Streptococcus viability loss, dose response, counter-screen for streptokinase expression inhibitor project, luminescence, BacTiterGlo (AID 1915); format: functional, organism-based;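 further: potency for reduction of bacterial viability or growth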
Cytochrome P450 1A2 = biological target: T3, Cytochrome P450 1A2 (Homo sapiens, UniProt P05177);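 further: PubChem cytochrome P450 panel assay, CYP1A2 panel member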
T3 sequence (P05177 whole entry): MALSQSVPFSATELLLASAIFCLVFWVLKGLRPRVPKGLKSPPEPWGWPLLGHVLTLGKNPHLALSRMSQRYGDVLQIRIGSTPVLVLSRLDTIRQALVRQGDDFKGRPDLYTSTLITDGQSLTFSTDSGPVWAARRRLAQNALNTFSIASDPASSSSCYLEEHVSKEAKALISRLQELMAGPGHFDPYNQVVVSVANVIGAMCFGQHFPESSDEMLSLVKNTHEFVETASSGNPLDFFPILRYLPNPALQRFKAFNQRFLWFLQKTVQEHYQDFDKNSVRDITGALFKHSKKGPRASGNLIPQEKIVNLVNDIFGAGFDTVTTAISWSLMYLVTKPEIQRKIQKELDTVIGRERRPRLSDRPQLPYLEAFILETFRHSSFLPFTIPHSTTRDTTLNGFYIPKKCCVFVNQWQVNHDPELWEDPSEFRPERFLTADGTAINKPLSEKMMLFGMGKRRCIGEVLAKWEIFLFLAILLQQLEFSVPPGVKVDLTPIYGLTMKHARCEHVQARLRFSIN

Chain of Cytochrome P450 3A4 (P08684 whole entry): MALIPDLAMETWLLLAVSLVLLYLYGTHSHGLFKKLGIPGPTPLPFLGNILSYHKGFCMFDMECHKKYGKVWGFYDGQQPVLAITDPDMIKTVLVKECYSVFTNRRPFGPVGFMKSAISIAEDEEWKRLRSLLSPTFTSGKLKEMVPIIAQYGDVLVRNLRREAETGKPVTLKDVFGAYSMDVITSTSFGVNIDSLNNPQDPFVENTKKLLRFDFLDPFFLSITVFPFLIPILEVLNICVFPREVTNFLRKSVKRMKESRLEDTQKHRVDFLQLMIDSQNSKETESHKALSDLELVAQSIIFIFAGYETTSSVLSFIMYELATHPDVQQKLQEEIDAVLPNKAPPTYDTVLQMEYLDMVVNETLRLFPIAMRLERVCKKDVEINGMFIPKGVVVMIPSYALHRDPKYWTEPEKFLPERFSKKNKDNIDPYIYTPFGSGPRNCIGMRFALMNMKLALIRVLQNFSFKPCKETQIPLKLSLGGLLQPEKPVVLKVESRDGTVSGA
Chain of Cytochrome P450 2C19 (P33261 whole entry): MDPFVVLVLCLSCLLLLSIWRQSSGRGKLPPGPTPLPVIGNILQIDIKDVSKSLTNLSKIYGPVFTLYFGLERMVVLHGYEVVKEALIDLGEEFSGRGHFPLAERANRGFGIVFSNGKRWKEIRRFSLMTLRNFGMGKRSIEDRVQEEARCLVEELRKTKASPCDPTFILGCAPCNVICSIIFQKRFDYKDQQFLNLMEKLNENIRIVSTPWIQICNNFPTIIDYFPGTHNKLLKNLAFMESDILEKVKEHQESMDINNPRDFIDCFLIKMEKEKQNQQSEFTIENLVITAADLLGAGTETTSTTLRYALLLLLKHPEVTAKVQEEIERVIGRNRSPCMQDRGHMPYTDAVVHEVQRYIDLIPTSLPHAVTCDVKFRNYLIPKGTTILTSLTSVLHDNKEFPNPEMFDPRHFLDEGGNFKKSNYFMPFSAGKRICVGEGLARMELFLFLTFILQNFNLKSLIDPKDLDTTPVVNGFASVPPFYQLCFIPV

CCOc1ccc(N2C(=O)C(Cl)=C(Nc3ccccc3O)C2=O)cc1
EC50 (H4): 0.107 µM (active)
EC50 [1]: > 120 µM (not active)

CCCc1ccc(-c2cc(C(=O)NN3CCOCC3)c3ccccc3n2)cc1
AC50 (Cytochrome P450 2C19): 15.8 µM (inconclusive)
AC50 (Cytochrome P450 3A4): 12.6 µM (inconclusive)

O=C1CCCC=C1[C@@H](O)COCc1ccccc1
AC50 (Cytochrome P450 3A4): 3.16 µM (inconclusive)

CN(Cc1ccco1)c1ncnc2ccc(-c3ccccc3C#N)cc12
AC50 (Cytochrome P450 3A4): 31.6 µM (inconclusive)

COc1ccc(CN(C)Cc2c(O)ccc3ccccc23)cc1
EC50 [2]: 38.8 µM (active)

Cc1cc(C)c(S(=O)(=O)N2CCN(c3ccc([N+](=O)[O-])c(NCC4CCCO4)c3)CC2)c(C)c1 (stereo not drawn)
AC50 (Cytochrome P450 3A4): 3.55 µM (inconclusive)

Cn1c(=O)c(-c2ccccc2)nc2cncnc21
AC50 (Cytochrome P450 3A4): 12.6 µM (inconclusive)

CNC(=O)[C@@H]1O[C@@H](n2cnc3c(NCc4ccc(N)cc4)ncnc32)[C@@H](O)[C@H]1O
AC50 (Cytochrome P450 3A4): 25.1 µM (inconclusive)

CN1CCCC2(CCN(C(=O)c3cc(C(F)(F)F)cc(C(F)(F)F)c3)CC2)C1
AC50 (Cytochrome P450 2C19): 25.1 µM (inconclusive)
AC50 (Cytochrome P450 3A4): 25.1 µM (inconclusive)

CC[C@]1(O)C[C@@H]2CN(CCc3c([nH]c4ccccc34)[C@](C(=O)OC)(c3cc4c(cc3OC)N(C=O)[C@H]3[C@@](O)(C(=O)OC)[C@H](C(=O)OC)[C@@]5(CC)C=CCN6CC[C@]43[C@H]65)C2)C1
AC50 (Cytochrome P450 3A4): 25.1 µM (inconclusive)

O=C(COC(=O)[C@H](Cc1ccccc1)NC(=O)c1ccco1)NCc1ccccc1
EC50 [3]: 10.4 µM (active)

O=C(Nc1ccc(Cl)cc1)OCCn1nnnc1C(c1ccccc1Cl)N1CCOCC1 (stereo not drawn)
AC50 (Cytochrome P450 3A4): 0.891 µM (inconclusive)

CN(Cc1ccc(OC(F)F)cc1)Cc1nc(O)c2cc(Br)cc(Br)c2n1
EC50 [4]: 4.31 µM (active)
EC50 (Streptococcus): > 150 µM (not active)

CC(C)(C)C(=O)N(CCN(C(=O)C(C)(C)C)c1ccccc1)c1ccccc1
AC50 (Cytochrome P450 2C19): 8.91 µM (inconclusive)
AC50 (Cytochrome P450 3A4): 7.08 µM (inconclusive)

O=C(c1cnccn1)N1CCC2(CC1)CN(c1cccc(-c3ccccc3)c1)C2
AC50 (Cytochrome P450 1A2): 15.8 µM (inconclusive)
AC50 (Cytochrome P450 3A4): 39.8 µM (inconclusive)

CC(=O)NCCNc1nc(-c2ccccc2C(F)(F)F)nc2ccccc12
AC50 (Cytochrome P450 3A4): 12.6 µM (inconclusive)

Nc1c(-c2ccsc2)cnc2ncnn12
EC50 [2]: > 260 µM (inactive)

CC(c1ccccc1C(O)(c1ccccc1)c1ccccc1)N(C)C (stereo not drawn)
EC50 [3]: 4.62 µM (active)

CCOc1ccc(N2C(=O)/C(=C\NNC(=O)C3COc4ccccc4O3)c3ccccc3C2=O)cc1 (stereo not drawn)
EC50 [4]: 1.63 µM (active)
EC50 (Streptococcus): 5.75 µM (active)

Cc1noc(C)c1C(=O)N1CCC2(CCCN(C(=O)Nc3cccc(F)c3)C2)CC1
AC50 (Cytochrome P450 1A2): 15.8 µM (inconclusive)
AC50 (Cytochrome P450 3A4): 15.8 µM (inconclusive)

COCCn1c(=O)c(-c2cccc(F)c2)nc2cncnc21
AC50 (Cytochrome P450 2C19): 39.8 µM (inconclusive)
AC50 (Cytochrome P450 3A4): 15.8 µM (inconclusive)

N=C(NOC(=O)/C=C/c1ccccc1Cl)c1cccnc1
EC50 (H4): 22.8 µM (active)

COc1ccccc1CNc1ncncc1-c1cccc(C#N)c1
AC50 (Cytochrome P450 3A4): 0.316 µM (inconclusive)

COC(=O)C1=CN(c2ccc(F)cc2)C=C(C(=O)OC)C1c1cccc(Br)c1
EC50 [2]: > 260 µM (inactive)
